# Reference: patent publication US6737383B1, “Herbicidal oxadiazolidines” (priority 1999, dated 2004)
# Legend:
# bedstraw = test: Test B pre/postemergence bedstraw; type: in vivo, Galium aparine
# Outline: (§1)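 Herbicidal effect was estimated by eye on a ten-point control scale after plants spent twelve to sixteen days in a greenhouse following soil or foliar treatment. Foliar sprays targeted plants at one to four leaves; all doses were formulated in a non-phytotoxic solvent with surfactant.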
# blackgrass = test: Test B pre/postemergence blackgrass; type: in vivo, Alopecurus myosuroides
# Outline: as §1
# surinam grass = test: Test B pre/postemergence surinam grass; type: in vivo, Brachiaria decumbens
# Outline: as §1
# cocklebur = test: Test B pre/postemergence cocklebur; type: in vivo, Xanthium strumarium
# Outline: as §1
# corn = test: Test B pre/postemergence corn; type: in vivo, Zea mays
# Outline: as §1
# morningglory = test: Test B pre/postemergence morningglory; type: in vivo, Ipomoea hederacea
# Outline: as §1
# pigweed = test: Test B pre/postemergence pigweed; type: in vivo, Amaranthus retroflexus
# Outline: as §1
# rape = test: Test B pre/postemergence rape; type: in vivo, Brassica napus
# Outline: as §1
# soybean = test: Test B pre/postemergence soybean; type: in vivo, Glycine max
# Outline: as §1
# sugar beet = test: Test B pre/postemergence sugar beet; type: in vivo, Beta vulgaris; conditions: for Plant response rating, Sugarbeets: Rate 250 g/ha
# Outline: as §1
# velvetleaf = test: Test B pre/postemergence velvetleaf; type: in vivo, Abutilon theophrasti; conditions: for Plant response rating, Velvetleaf: Rate 250 g/ha
# Outline: as §1
# wild oat = test: Test B pre/postemergence wild oat; type: in vivo, Avena fatua; conditions: for Plant response rating, Wild oats: Rate 250 g/ha
# Outline: as §1
# purple nutsedge = test: Test B pre/postemergence purple nutsedge; type: in vivo, Cyperus rotundus
# Outline: as §1
# rice = test: Test B flood test rice; type: in vivo, Oryza sativa
# Outline: (§2)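 Each value is a visual injury score relative to controls, with 10 meaning complete control and 0 no effect. Evaluation took place twelve to sixteen days after the 2-leaf-stage plants were treated and kept in the greenhouse.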
# smallflower flatsedge = test: Test B flood test smallflower flatsedge; type: in vivo, Cyperus difformis
# Outline: as §2
# bamyardgrass = test: Test B flood test barnyardgrass; type: in vivo, Echinochloa crus-galli
# Outline: as §2
# [1] = Preemergence, Rate 62 g/ha, scale 0 to 10 (0 no effect, 10 complete control)
# [2] = Preemergence, Rate 125 g/ha, scale 0 to 10 (0 no effect, 10 complete control)
# [3] = Preemergence, Rate 250 g/ha, scale of 0 to 10 where 0 is no effect and 10 is complete control
# [4] = Preemergence, Rate 500 g/ha, scale 0 (no effect) to 10 (complete control)
# [5] = Rate 500 g/ha, Postemergence, scale 0 to 10, 0 no effect, 10 complete control
# [6] = Postemergence, Rate 62 g/ha, scale 0 to 10, 0 is no effect, 10 is complete control
# [7] = Postemergence, Rate 125 g/ha, scale of 0 to 10 where 0 is no effect and 10 is complete control
# [8] = Postemergence, Rate 250 g/ha, scale 0 to 10, 0 no effect, 10 complete control
# [9] = Rate 250 g/ha, Postemergence, scale 0 to 10, 0 is no effect, 10 is complete control
# [10] = Preemergence, Rate 125 g/ha, 0 is no effect, 10 is complete control
# [11] = Preemergence, scale of 0 to 10 where 0 is no effect and 10 is complete control
# [12] = Postemergence, scale 0 to 10, 0 is no effect, 10 is complete control
# [13] = Postemergence (flood test species), Rate 125 g/ha, scale of 0 to 10 where 0 is no effect and 10 is complete control
# [14] = Rate 250 g/ha, Postemergence (flood test), scale 0 to 10, 0 is no effect, 10 is complete control
# [15] = Rate 250 g/ha, headed Pre-emergence (flood test species), scale 0 to 10 (0 no effect, 10 complete control)
# [16] = Rate 500 g/ha, headed Pre-emergence (flood test species), scale 0 to 10 (0 no effect, 10 complete control)
# [17] = Rate 500 g/ha, listed under Postemergence (flood test species), scale 0 to 10, 0 no effect, 10 complete control
# [18] = Rate 1000 g/ha, Pre-emergence (as headed), scale 0 to 10
# [19] = Rate 2000 g/ha, Pre-emergence (as headed), scale 0 to 10
smiles,measurement,setting,value
C=CCn1c(=O)on(C(=O)N(c2ccccc2)C(C)C)c1=O [Compound 93],Bedstraw plant response rating,bedstraw; [1],0
same,"Plant response rating, Bedstraw",bedstraw; [2],0
same,"Plant response rating, Bedstraw",bedstraw; [3],0
same,Bedstraw plant response rating,bedstraw; [4],3
same,Bedstraw plant response rating,bedstraw; [5],7
same,Blackgrass plant response rating,blackgrass; [6],7
same,Blackgrass plant response rating,blackgrass; [7],8
same,Blackgrass plant response rating,blackgrass; [8],8
same,Blackgrass plant response rating,blackgrass; [1],9
same,"Plant response rating, Blackgrass",blackgrass; [2],10
same,"Plant response rating, Blackgrass",blackgrass; [3],10
same,Blackgrass plant response rating,blackgrass; [4],10
same,Blackgrass plant response rating,blackgrass; [5],8
same,B. signalgrass plant response rating,surinam grass; [6],3
same,B. signalgrass plant response rating,surinam grass; [8],8
same,"Plant response rating, B. signalgrass",surinam grass; [2],7
same,B. signalgrass plant response rating,surinam grass; [4],8
same,B. signalgrass plant response rating,"surinam grass; Rate 125 g/ha, Postemergence, scale 0 to 10, 0 no effect, 10 complete control",5
same,B. signalgrass plant response rating,"surinam grass; Rate 500 g/ha, Postemergence, scale of 0 to 10 where 0 is no effect and 10 is complete control",9
same,Cocklebur plant response rating,cocklebur; [6],0
same,Cocklebur plant response rating,cocklebur; [7],1
same,Cocklebur plant response rating,cocklebur; [8],2
same,Cocklebur plant response rating,cocklebur; [1],2
same,"Plant response rating, Cocklebur",cocklebur; [2],2
same,Cocklebur plant response rating,cocklebur; [5],4
same,Corn plant response rating,corn; [6],3
same,Corn plant response rating,corn; [7],4
same,Corn plant response rating,corn; [8],5
same,Corn plant response rating,corn; [1],3
same,"Plant response rating, Corn",corn; [2],7
same,"Plant response rating, Corn",corn; [3],8
same,Corn plant response rating,corn; [4],9
same,Corn plant response rating,corn; [5],5
same,Morningglory plant response rating,morningglory; [6],6
same,Morningglory plant response rating,morningglory; [7],10
same,Morningglory plant response rating,morningglory; [8],10
same,Morningglory plant response rating,morningglory; [1],0
same,"Plant response rating, Morningglory",morningglory; [2],0
same,"Plant response rating, Morningglory",morningglory; [3],3
same,Morningglory plant response rating,morningglory; [4],6
same,Morningglory plant response rating,morningglory; [5],10
same,Redroot pigweed plant response rating,pigweed; [6],2
same,Redroot pigweed plant response rating,pigweed; [7],4
same,Redroot pigweed plant response rating,pigweed; [1],9
same,"Plant response rating, Redroot pigweed",pigweed; [2],8
same,"Plant response rating, Redroot pigweed",pigweed; [3],10
same,Redroot pigweed plant response rating,pigweed; [4],10
same,"Plant response rating, Redroot pigweed",pigweed; [9],7
same,Redroot pigweed plant response rating,pigweed; [5],7
same,Rape plant response rating,rape; [6],2
same,Rape plant response rating,rape; [7],3
same,Rape plant response rating,rape; [8],4
same,Rape plant response rating,rape; [1],3
same,"Plant response rating, Rape",rape; [2],7
same,"Plant response rating, Rape",rape; [3],8
same,Rape plant response rating,rape; [4],10
same,Rape plant response rating,rape; [5],5
same,Soybean plant response rating,soybean; [6],4
same,Soybean plant response rating,soybean; [7],5
same,Soybean plant response rating,soybean; [1],0
same,"Plant response rating, Soybean",soybean; [2],2
same,"Plant response rating, Soybean",soybean; [3],7
same,Soybean plant response rating,soybean; [4],9
same,"Plant response rating, Soybean",soybean; [9],5
same,Soybean plant response rating,soybean; [5],7
same,Sugarbeets plant response rating,sugar beet; [6],2
same,Sugarbeets plant response rating,sugar beet; [7],3
same,Sugarbeets plant response rating,sugar beet; [1],6
same,Sugarbeets plant response rating (0 to 10 scale),sugar beet; [10],7
same,"Plant response rating, Sugarbeets",sugar beet; [11],8
same,Sugarbeets plant response rating,sugar beet; [4],9
same,"Plant response rating, Sugarbeets",sugar beet; [12],3
same,Sugarbeets plant response rating,sugar beet; [5],5
same,Velvetleaf plant response rating,velvetleaf; [6],0
same,Velvetleaf plant response rating,velvetleaf; [7],0
same,Velvetleaf plant response rating,velvetleaf; [1],5
same,Velvetleaf plant response rating (0 to 10 scale),velvetleaf; [10],6
same,"Plant response rating, Velvetleaf",velvetleaf; [11],6
same,Velvetleaf plant response rating,velvetleaf; [4],10
same,"Plant response rating, Velvetleaf",velvetleaf; [12],0
same,Velvetleaf plant response rating,velvetleaf; [5],6
same,Wild oats plant response rating,wild oat; [6],0
same,Wild oats plant response rating,wild oat; [7],0
same,Wild oats plant response rating,wild oat; [1],8
same,Wild oats plant response rating (0 to 10 scale),wild oat; [10],8
same,"Plant response rating, Wild oats",wild oat; [11],10
same,Wild oats plant response rating,wild oat; [4],10
same,"Plant response rating, Wild oats",wild oat; [12],2
same,Wild oats plant response rating,wild oat; [5],5
same,Nutsedge plant response rating,purple nutsedge; [6],0
same,Nutsedge plant response rating,purple nutsedge; [7],0
same,Nutsedge plant response rating,purple nutsedge; [8],0
same,Nutsedge plant response rating,purple nutsedge; [1],0
same,"Plant response rating, Nutsedge",purple nutsedge; [2],0
same,"Plant response rating, Nutsedge",purple nutsedge; [3],0
same,Nutsedge plant response rating,purple nutsedge; [5],3
same,Rice plant response rating,rice; [13],0
same,Rice plant response rating,rice; [6],0
same,"Plant response rating, Rice",rice; [14],0
same,Rice plant response rating,rice; [15],0
same,"Plant response rating, Rice",rice; [16],0
same,Rice plant response rating,rice; [17],4
same,Rice plant response rating,rice; [18],0
same,Rice plant response rating,rice; [19],0
same,S. Flatsedge plant response rating,smallflower flatsedge; [13],0
same,S. Flatsedge plant response rating,smallflower flatsedge; [6],0
same,S. Flatsedge plant response rating,"smallflower flatsedge; Pre-emergence, Rate 1000 g/ha, scale 0 to 10 (0 no effect, 10 complete control)",0
same,"Plant response rating, S. Flatsedge",smallflower flatsedge; [14],0
same,S. Flatsedge plant response rating,smallflower flatsedge; [15],0
same,"Plant response rating, S. Flatsedge",smallflower flatsedge; [16],0
same,S. Flatsedge plant response rating,smallflower flatsedge; [17],6
same,S. Flatsedge plant response rating,smallflower flatsedge; [19],0
same,Barnyardgrass plant response rating,bamyardgrass; [6],0
same,Barnyardgrass plant response rating,"bamyardgrass; Rate 125 g/ha, Postemergence section (flood test species), scale 0 to 10, 0 no effect, 10 complete control",0
same,Barnyardgrass plant response rating,bamyardgrass; [15],0
same,"Plant response rating, Barnyardgrass",bamyardgrass; [16],0
same,Barnyardgrass plant response rating,bamyardgrass; [17],0
same,Barnyardgrass plant response rating,bamyardgrass; [18],0
same,Barnyardgrass plant response rating,"bamyardgrass; Rate 2000 g/ha, Pre-emergence (as headed), scale 0 to 10, 0 no effect, 10 complete control",0
same,Barnyardgrass plant response rating,"bamyardgrass; flood test, listed under Postemergence, Rate 250 g/ha, scale 0 to 10, 0 no effect, 10 complete control",0
